Measured values taken from patent publication US5283255A, “Wavelength-specific cytotoxic agents” (The University of British Columbia, priority 1992, dated 1994).
Several values for one entry are separate records, joined by “and”; a condition that tells them apart may be missing. Identical values can stand only once. Like-named read-outs stand apart in the source and are kept apart here.

Tests used:
atherosclerotic aortas = assay: Rabbit studies of aorta, fluorescence microscopy; format: in vivo
Procedure: The rabbits were injected with BPD-MA at various dosages and time intervals prior to sacrifice. The rabbits were euthanized by injection and the entire descending aorta was removed, sectioned, and examined by fluorescence microscopy.

skin = conditions: mouse, in vivo
Procedure: Mice bearing P815 tumors were shaved and injected with equivalent amounts of photosensitizer, and exposed to 72 Jo/cm^2 (80 mw/cm^2 -15 min-full spectrum) at various time intervals. Skin biopsies were taken at 24 and 48 hours after light irradiation and visual evaluations were made blind.

in vivo = conditions: mouse, iv
Procedure: (§4) To determine biodegradability, tritiated BPD-MA was injected IV into P815 tumor-bearing mice. The mice were sacrificed at either 3 or 24 hours following injection and tumors, livers and kidneys were removed. The BPD-MA in these tissues was extracted and photoactivity was assessed in P815 target cells as described above in Example 1 under standard in vitro conditions.

[1] = tested on: warts caused by Papilloma virus; assay: Systemic administration, papilloma-caused warts in rabbits; format: in vivo, rabbit; conditions: of 12 warts, 2 mg/kg IV
Procedure: Rabbits displaying warts caused by Papilloma virus were provided according to the model described by Shope et al., J. Exp. Med, (1933) 58:607-624. Five rabbits were administered Photofrin® II porfimer sodium intravenously at 10 mg/kg total dose over a ≤5 minute period beginning 24 hours before irradiation treatment. Six rabbits were administered BPD-MA intravenously at 2 mg/kg total dose over a ≤5 minute period beginning 2.5-3.5 hours before irradiation treatment. Warts were irradiated individually with no light, 150 J/cm^2 or 250 J/cm^2 using 630 nm for porfimer sodium and 690 nm for BPD-MA.

VSV = assay: microbe, parasite or virus in culture; parameters: species or system Vesicular stomatitis virus; conditions: for log reduction at 1 µg/mL: read-out: virus kill, 1 μg/ml; for log reduction at 1000 µg/mL: read-out: virus kill, 1 mg/ml (so in the source)
tumor cells = assay: Alternate in vivo assay: kill of tumor cells from dosed mice (MTT); conditions: 180 min
[2] = tested on: Human atherosclerotic iliofemoral arteries and aorta; assay: In vitro human atherosclerotic tissue study, fluorescence microscopy
Procedure: Human atherosclerotic iliofemoral arteries and aorta were harvested and wrapped in saline-soaked gauze and then incubated for 2 hours at room temperature in MEM-Eagle's Medium and 10% fetal calf serum mixed with BPD-MA formulated at 30 μg/ml. The BPD was prepared by mixing 1 ml of BPD-MA stock solution with 8.1 ml MEM-Eagle's Medium and 0.9 ml fetal calf serum.
The sample was rinsed three times in cold normal saline, and the sections were examined by fluorescence microscopy to evaluate the uptake of BPD. The administered dose was finally diluted to provide solutions containing 0.5-200 μg/ml, and incubation time was varied.

colon adenocarcinoma [3] = assay: Detection of tumors by fluorescence in rats; conditions: 3.5 mg/kg IV; 3 h
colon adenocarcinoma [4] = conditions: rat, in vivo
M-1 rhabdomycoscercoma = assay: In vivo photosensitization, M-1 rhabdomyosarcoma system in DBA/J2 mice
Procedure: Studies of potential photosensitizers were performed using the M-1 rhabdomycoscercoma system in DBA/J2 mice. The compositions to be tested were diluted to a concentration of […] in PBS from a stock solution in DMSO at 8 mg/ml (except Photofrin® II, which was diluted directly from the clinical vial). […]

target cells = assay: In vitro evaluation of BPD-DA, -MA, -DB and -MB (as in Example 1); format: cell-based
Procedure: For the "affinity" assay, in the dark, 100 μl of the target cell suspension and 100 μl of the test or control compound were mixed. "Labeling" was allowed to continue for one hour at 4° C., and labeled cells were washed in the dark three times with 3 ml medium each time and resuspended in fresh medium. The resuspended cells were then subjected to light exposure at 300-750 nanometers for 30 minutes.
In a "direct" assay the target cells were irradiated immediately upon addition of the test or control compound.
The effect of irradiation was estimated using methods appropriate to the target cells.
The four compounds shown in FIG. 2, wherein R^1 and R^2 are carbomethoxy, were tested in vitro as described in Example 1.

P815 target cells = conditions: mouse, in vivo, iv
Procedure: as §4

[5] = format: in vitro ADME; conditions: human
Procedure: (§1) Franz in vitro percutaneous diffusion chambers were used to conduct studies of BPD formulations with oleic acid and oleyl alcohol vehicles (^14 C-BPD having a specific activity of 6 μCi was used). Excised split thickness (200 μ) human cadaver skin was mounted on the chamber (surface area 3 cm^2). The lower reservoir contained 4% bovine serum albumen in isotonic buffered saline, pH 7.0.
(§2) The chambers with the skin were equilibrated to 37° C. prior to application of the drug formulations. Formulations ([…] containing 1.67 μCi) were applied to the epidermal surface of the skin. The chamber was covered (occluded) to prevent evaporation, and the experiment was conducted in the dark.
(§3) Six diffusion cells were run for each time point (1.5 hr, 3 hr, 24 hr) for each formulation. Samples were removed from the dermal chamber at 1.5 hr, 3 hr and 24 hr. Cumulative penetration was assayed by liquid scintillation.
At the end of the respective time point, the surface of the skin was washed to remove surface drug. A 4 mm full thickness skin punch biopsy was taken from each specimen and processed for frozen section tissue fluorescence. This necessitates termination of flux measurements in that chamber. The stratum corneum was removed by 25 repetitive strippings with cellophane tape and counted in groups of five. The epidermis was heat-separated from the dermis by heating to 60° C. for 1 minute. These tissues were then digested and the ^14 C-BPD content of each of the skin compartments and reservoir was determined by liquid scintillation counting. (In the tables, "BPD-OA" and "BPD-OL" represent the BPD-oleic acid and BPD-oleyl alcohol formulations of the preceding example, "CH-014" represents ^14 C-labeled BPD-MA, and "phospholipid" represents a BPD-MA liposomal formulation.)

[6] = format: in vitro ADME, human
Procedure: as §1, §2, §3
At the end of the respective time point, the surface of the skin was washed to remove surface drug. A 4 mm full thickness skin punch biopsy was taken from each specimen and processed for frozen section tissue fluorescence. […] The stratum corneum was removed by 25 repetitive strippings with cellophane tape and counted in groups of five. […] These tissues were then digested and the ^14 C-BPD content of each of the skin compartments and reservoir was determined by liquid scintillation counting. […]

What does the source list for C=Cc1c(C)c2cc3nc(cc4[nH]c(cc5nc(cc1[nH]2)C(C)=C5CCC(=O)O)c(CCC(=O)OC)c4C)C1(C)C3=CC=C(C(=O)OC)C1C(=O)OC (stereo not drawn) [BPD-MA]?
fluorescence in aorta tissue samples (atherosclerotic aortas; 30 μg/kg): No fluorescence was seen; fluorescence in normal aorta samples (atherosclerotic aortas; 100 μg/kg): no fluorescence was shown in the normal aorta samples; fluorescence in atherosclerotic samples (atherosclerotic aortas; 100 μg/kg, two samples): fluorescence was seen in the plaque but not the arterial wall; skin photosensitizing activity (skin): major photosensitizing activity; time dependence of skin photosensitizing activity (skin): only present when light treatment was given 3 hours post drug administration; remaining at 3 h (in vivo): 100%; remaining at 24 h (in vivo): 39%; warts completely regressed ([1]; 150 J/cm^2, 690 nm): 7; warts showing >50% regression ([1]; 150 J/cm^2, 690 nm): 5; warts showing complete cure ([1]; 250 J/cm^2, 690 nm): 12; relationship between total light energy and drug dose required to inactivate VSV (VSV; 1, 2 and 4 μg/ml, 1 ml samples, 2 h before light): inverse relationship between total light energy and the drug dose required to inactivate the VSV; virus inactivation (VSV; 2 and 4 μg/ml, 2 h dark incubation, 57.6 J/cm^2, 1 and 2 ml samples): complete virus inactivation; effect of increasing incubation time on VSV inactivation (VSV; 0.5 hour to 1 hour, 1 μg/ml, 57.6 J/cm^2): improved VSV inactivation; log reduction at 2 µg/mL (VSV; Vesicular stomatitis virus, light or radiation study, 2 h, read-out: viral kill, 2 μg/ml, 1 ml, 2 h, 57.6 J/cm^2): 7; log reduction at 1 µg/mL (VSV; Vesicular stomatitis virus, light or radiation study, 2 h, 28.8 J/cm^2): 2; log reduction at 1 µg/mL (VSV; Vesicular stomatitis virus, light or radiation study, 2 h, 57.6 J/cm^2): 5; log reduction at 1000 µg/mL (VSV; Vesicular stomatitis virus, light or radiation study, 1 ml sample, 57.6 J/cm^2): 4; log reduction at 1000 µg/mL (VSV; Vesicular stomatitis virus, light or radiation study, 2 ml sample, 57.6 J/cm^2): 2; effect of incubation temperature (VSV; room temperature, 37° C. or 4° C.): little difference; effect of further increasing incubation time on VSV inactivation (VSV; to 2-3 hours, 1 μg/ml, 57.6 J/cm^2): little effect; % Kill (tumor cells; 33 μg/mouse IV, light dose 5.7 Jo): 22.0%; % Kill (tumor cells; 40 μg/mouse IV, light dose 3.8 Jo): 32.5%; % Kill (tumor cells; 80 μg/mouse IV, light dose 3.8 Jo): 63.5 ± 2.1% and 53.7 ± 6.2%; fluorescence for detection of plaques ([2]; 10 μg/ml or less): did not provide sufficient fluorescence to detect the presence of plaques; fluorescence for detection of plaques ([2]; 100 μg/ml and above): fluorescence was clearly seen; fluorescence in plaqued areas ([2]; approximately 25 μg/ml): showed most intensely in the plaqued areas; fluorescence in underlying arterial wall ([2]; approximately 25 μg/ml): no fluorescence was seen in the underlying arterial wall; ratio of tumor exterior to muscle compared with HP (colon adenocarcinoma [3]): approximately the same as that for HP; drug-related signal over malignant tumor (colon adenocarcinoma [4]): BPD-MA-related signal increases over the malignant tumor; Number of Days Tumor Free (PR) (M-1 rhabdomycoscercoma; Table 6, 567 Jo/cm^2, IV 24 h before light): 9.2 days; Cures (tumor regressed and tumor-free for 30 days) (M-1 rhabdomycoscercoma; Table 6, 567 Jo/cm^2, 8 animals per group): 4; Days Tumor-free (M-1 rhabdomycoscercoma; Table 7, light dose 378 To/cm^3): 13.2 days; Number of Cures (M-1 rhabdomycoscercoma; Table 7, light dose 378 To/cm^3, 9-15 animals): 4; in vitro photosensitivity (target cells): somewhat more active; degradation in liver and kidney compared with tumor tissue (P815 target cells): both the liver and kidney degraded BPD more rapidly than did tumor tissue

Which “PERCENT RECOVERY, Dermis” value ([5]; 90 min) does the source give for C=Cc1c(C)c2cc3nc(cc4[nH]c(cc5nc(cc1[nH]2)C(C)=C5CCC(=O)O)c(CCC(=O)OC)c4C)C1(C)C3=CC=C(C(=O)OC)C1C(=O)OC (stereo not drawn) [CH-014] here?
The value was “.19 ± .06%”.

What about the “PERCENT RECOVERY, Epidermis” value ([5]; 90 min) of the same molecule?
Its value is “.13 ± .13%”.

And the “PERCENT RECOVERY, Reservoir” value ([5]; 90 min)?
The value was 0%.

What about the “PERCENT RECOVERY, Dermis” value ([5]; 180 min) of the same molecule?
The value was “.32 ± .11%”.

What about the “PERCENT RECOVERY, Epidermis” value ([5]; 180 min) of the same molecule?
Its value is “.06 ± .02%”.

And the “PERCENT RECOVERY, Reservoir” value ([5]; 180 min)?
Its value is 0%.

And the “PERCENT RECOVERY, Dermis” value ([5]; 1440 min)?
Its value is “.40 ± .28%”.

What about the “PERCENT RECOVERY, Epidermis” value ([5]; 1440 min) of the same molecule?
Its value is “.06 ± .03%”.

And the “PERCENT RECOVERY, Reservoir” value ([5]; 1440 min)?
The value was “.014 ± .018%”.

What about the “TISSUE FLUORESCENCE, Dermis” value [6] of the same molecule?
The value was 1.
